Measurements: patent US20120071459A1, “BIS-PYRIDYLPYRIDONES AS MELANIN-CONCENTRATING HORMONE RECEPTOR 1 ANTAGONISTS” (GlaxoSmithKline LLC, priority 2009, published 2012)

Target: T1, hMCHR1 (Homo sapiens, UniProt Q99705)
T1 construct: expressed in transfected cells; host or cells: HEK293
Assay: MCHR1 pIC50 Determination FLIPR Assay
Assay type: cell-based
Conditions: HEK293 cells stably transfected with hMCHR1; MCH challenge at 4xEC50; in at least one experimental run
Method: MCHR1 pIC50 Determination FLIPR™ Assay: HEK293 cells stably transfected with hMCHR1 were propagated as adherent cultures at 37° C. in a humidified incubator. Cells were split 1:8 at 90% confluency two times per week. New cell stocks were recovered from storage every two months. Cells were plated in black 384-well plates (Greiner) 24 hours prior to assay at 15,000 cells/well in 50 μL DMEM/F12, 10% FBS, 2 mM l-glutamine. Compounds to be profiled were prepared by making a stock solution at 3×10^−3M in 100% DMSO. The stock solutions were serially diluted 1:4 in 100% DMSO using JANUS (PerkinElmer) liquid handling instrument to allow for an 11 point curve in singlicate. At the time of the assay, the media was removed from the cell plate by aspiration, followed by the addition of 20 μL of loading buffer (Calcium 4 Kit, […]). Following 50 min incubation at 37° C., 10 μL of compound was added to the plates via the FLIPR™ instrument ([…]). The plates were incubated at room temperature for 15 minutes along with an MCH peptide agonist challenge plate. On the FLIPR™, a basal response was collected over 10 seconds followed by the addition of 10 μL of MCH challenge concentration at 4×EC50. Data was collected over 4 minutes and subjected to a nonlinear regression analysis curve fitting program to generate pIC50s.

T1 sequence (Q99705 whole entry): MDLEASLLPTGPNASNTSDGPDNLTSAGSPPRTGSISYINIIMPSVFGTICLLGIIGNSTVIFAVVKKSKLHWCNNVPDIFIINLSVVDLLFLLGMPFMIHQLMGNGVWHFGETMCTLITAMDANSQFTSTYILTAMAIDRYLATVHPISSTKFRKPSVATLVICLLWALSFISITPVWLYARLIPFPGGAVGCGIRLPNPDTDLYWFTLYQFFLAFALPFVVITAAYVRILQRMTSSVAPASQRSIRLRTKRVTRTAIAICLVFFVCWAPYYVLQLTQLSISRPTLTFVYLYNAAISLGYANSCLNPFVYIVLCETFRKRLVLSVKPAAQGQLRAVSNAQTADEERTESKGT

Row | IC50 [nM] | Compound
1 | 49 | O=C1N(c2ccc(-n3ccc(OCc4ccc(Cl)cn4)cc3=O)cn2)CC12CCNCC2 [Example 4, 4-{[(5-chloro-2-pyridinyl)methyl]oxy}-6′-(1-oxo-2,7-diazaspiro[3.5]nonan-2-yl)-2H-1,3′-bipyridin-2-one]
2 | 50 | O=C1CC2(CCCN(c3ccc(-n4ccc(OCc5ccc(Cl)cn5)cc4=O)cn3)C2)C(=O)N1 (stereo not drawn) [Example 11]
3 | 54 | O=c1cc(OCc2ccc(Cl)cn2)ccn1-c1ccc(N2CCC3(CC2)CNC3)nc1 [Example 12]
